# In patent US9164099B2, “Site-specific labeling of affinity tags in fusion proteins” (LIFE TECHNOLOGIES CORPORATION, priority 2002, dated 2015):
# Experiments:
# Type in all cases: binding
# [1] = target: T1, poly-histidine affinity tag containing fusion protein (Oligomycin sensitivity conferring protein; OSCP) (Homo sapiens, UniProt P48047); assay: Gel detection of His-tagged OSCP followed by SYPRO Ruby total protein stain (FIG. 2, 3); conditions: staining solution containing nickel ions; compared with SYPRO Ruby total protein stain
# T1 construct: poly-histidine; made in house
# T1 sequence (P48047 24-213): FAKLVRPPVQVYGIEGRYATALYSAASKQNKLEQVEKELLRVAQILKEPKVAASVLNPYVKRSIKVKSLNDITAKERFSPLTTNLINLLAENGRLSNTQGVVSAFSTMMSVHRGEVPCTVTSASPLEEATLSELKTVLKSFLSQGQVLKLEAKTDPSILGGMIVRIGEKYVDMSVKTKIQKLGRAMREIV
# Excerpt: (§1) FIG. 2: FIG. 2A is a graph showing the detection of a poly-histidine affinity tag containing fusion protein (Oligomycin sensitivity conferring protein; OSCP) labeled with Compound 2 in a staining solution containing nickel ions followed by the detection of (shown in FIG. 2B) total protein using the total protein stain SYPRO® Ruby.
# as §1, with “3:” for “2:”, “3A” for “2A”, “15” for “2”, “3B)” for “2B)”
# Following separation of the proteins on a SDS-polyacrylamide gel, the gels were fixed for 20 minutes in 100 ml of 50% ethanol/7% acetic acid and then fixed overnight in 100 ml of fresh fixative solution to ensure complete elimination of SDS. Gels were next washed 3 times for 20 minutes each in deionized water. The gels were then incubated in a staining solution containing 10 μM compound 1 or 2 μM compound 2; 100 μM NiCl2; 50 mM PIPES at pH 6.5 for 45-90 minutes in a total volume of 25 ml. Afterwards, the gels were washed 2 to 4 times for 20 minutes each in deionized water. In order to ensure that the optimal signal was documented, gels were imaged after the second and fourth wash. […]
# [2] = system: poly-histidine affinity tag containing fusion protein (urate oxidase); assay: Gel detection of His-tagged urate oxidase with and without nickel ions (FIG. 1); conditions: staining solution without nickel ions compared with nickel ions
# Description: FIG. 1B is a graph showing data from the same experiment performed without nickel ions.
# Escherichia coli BL21 DE3 cells were transformed with plasmids containing either the human ATP synthase a subunit, the d subunit (including the leader sequence) or urate oxidase. Both proteins were constructed to have a poly-histidine affinity tag comprising six histidine residues, at the N-terminus and could be induced by isopropyl-beta-D-thiogalactoside (IPTG) addition to the medium. Pre-cultures (10 ml) were grown overnight in bacterial cell culture medium (LB medium) at 37° C. with constant shaking. The next day 100 μl was transferred to 50 ml of fresh LB medium containing 0.1 mg/ml ampicillin and grown until they reached an optical density at 595 nm (OD595) of 0.8. At this point 5 ml of culture was removed and immediately frozen on dry ice. To the rest of the culture 0.8 mM IPTG was added to induce the over-expression of the subunits. Samples (5 ml each) were taken after 10 min, 30 min, 1 h, 1.5 h, 2 h, 2.5 h, and 3 h and again frozen on dry ice. […]
# The resulting green-fluorescent signal produced by compound 2 was visualized using the 473 nm excitation line of the SHG laser on the Fuji FLA-3000G Fluorescence Image Analyzer (Fuji Photo, Tokyo, Japan) with the 520 nm long pass filter or the 580 nm band pass filter, respectively. […]
# [3] = system: oligohistidine-tagged fusion proteins (the a subunit of Escherichia coli ATPase and porin); assay: Detection of poly-histidine affinity tag fusion proteins on a microarray; conditions: 10 μM compound, 50 mM PIPES pH 6.5
# Description: Purified oligohistidine-tagged fusion proteins (the a subunit of Escherichia coli ATPase and porin), as well as control proteins (bovine serum albumin and ovalbumin) are arrayed from a source plate (384 well plate) concentration of 0.468 μg/ml-0.240 mg/ml in water, onto HydroGel coated slides (Perkin Elmer), using the BioChip Arrayer™ (Perkin Elmer). The BioChip Arrayer™ utilizes a PiezoTip™ Dispenser consisting of 4 glass capillaries. Proteins are dispensed from the PiezoTip™ by droplets […] in volume to create array spots ˜200 microns in diameter with a 500 micron horizontal and vertical pitch (pitch=center to center spacing of spots). Proteins are arrayed in duplicate in four rows, with 10 dilution points. The resulting concentration range of the array is 166.5 pg/spot-0.325 pg/spot. For detection of oligohistine-tagged proteins, slides are incubated for 45 minutes on a rotator in 50% ethanol/7% acetic acid and then fixed overnight in fresh fixative solution to ensure complete elimination of SDS. Microarrays are next washed 3 times for 20 minutes each in deionized water. The microarrays are then incubated in a staining solution containing 10 μM Compound 2 or Compound 15; 50 mM PIPES at pH 6.5 for 45-90 minutes. Afterwards, the microarrays are washed 2 to 4 times for 20 minutes each in deionized water. […]
substance,measurement,setting,value
"4,4-difluoro-4-bora-3a,4a-diaza-s-indacene-3,5-bis((6-(propionyl)amino-2-bis(carboxymethyl)amino)hexanoic acid), hexatriethylammonium salt [Compound 2]",selectivity for the poly-histidine affinity tag,[1],selective
same,sensitivity for the poly-histidine affinity tag,[2],increased sensitivity
same,signal on control proteins (bovine serum albumin and ovalbumin),[3],little or no signal
